“Also recorded” adds a separate entry of the source. Like-named read-outs stand apart in the source and are kept apart here. Blank lines part the entries; values can stand above or below the molecule they belong to.
Key:
[1] = molecular target: α1-adrenoceptor (3H-prazosin binding sites); test: displacement of 3H-prazosin from rat cerebral cortical (brain) membranes; details: for -logIC50: 3H-prazosin displacement, rat cerebral cortical membranes
Description: IC50 values and apparent Ki values were determined as in Table 1.
(§1) Rat brain cortices were homogenized in approximately 30 volumes/wet weight of 50 mM Tris buffer, pH 7.4, containing 10 mM MgCl2 by use of a Polytron (setting 6 for 10 seconds). It should be noted that this buffer was used throughout the experimental procedures. The homogenate was centrifuged at 48,000×g for 10 minutes in a Sorvall RC-5B centrifuge. The resulting pellet was resuspended in buffer by use of a Polytron and recentrifuged. This process was repeated and the pellet was resuspended in approximately 200 volumes for affinity studies or 20 volumes for irreversibility experiments.
Specific binding was defined as the difference between total binding (measured in the absence of any ligand) and non-specific binding (measured in the presence of 10 microM phentolamine). Duplicate tubes were used for each condition. Reaction tubes were incubated for 30 minutes at 30° C., then diluted to 5 ml with ice cold buffer, and filtered under reduced pressure through Whatman GF/C glass fiber filters. The reaction tubes and filters were washed three additional times with buffer.

[2] = system: α1-adrenoceptor (3H-prazosin binding sites); test: irreversibility experiment: membranes preincubated with compound, washed, assayed for saturation of 3H-prazosin binding; design: species or system rat; details: for irreversible blockade / effect on 3H-prazosin binding sites (in words): membranes, preincubation and washing
[3] = system: phenylephrine, alpha1-adrenergic pressor response; test: diastolic blood pressure response to phenylephrine in anesthetized rats; assay type: in vivo, rat; details: i.v., prazosin 0.11 mg/kg or compound 47 0.09 mg/kg, 15 min
Description: (§2) Male rats were anesthetized, cannulated, and treated with hexamethonium bromide to block ganglionic effect, and their basal response in blood pressure to pressor compounds was measured. […] After fifteen minutes, the response in blood pressure to pressor compounds was re-evaluated.

[4] = system: BHT 933, alpha2-adrenergic pressor response; test: diastolic blood pressure response to BHT 933 in anesthetized rats; assay type: in vivo, rat; details: i.v., prazosin 0.11 mg/kg or compound 47 0.09 mg/kg, 15 min
Description: as §2

[5] = system: hypertensive patients; normotensive and hypertensive animals; details: human, in vivo; cited from earlier work
[6] = system: alpha1-adrenoceptors and other receptors; details: prior art; cited from earlier work
[7] = molecular target: T1, α1-adrenoceptor (3H-prazosin binding sites) (Rattus norvegicus, UniProt P15823); test: irreversibility experiment: membranes preincubated with compound, washed, assayed for saturation of 3H-prazosin binding; details: spleen membranes, FIG. 3; statistically insignificant
T1 construct: Rat brain cortices were homogenized; from tissue; host or cells: rat brain cortex membranes; for some results heart ventricle, kidney cortex and spleen membranes
T1 sequence (P15823 1-515): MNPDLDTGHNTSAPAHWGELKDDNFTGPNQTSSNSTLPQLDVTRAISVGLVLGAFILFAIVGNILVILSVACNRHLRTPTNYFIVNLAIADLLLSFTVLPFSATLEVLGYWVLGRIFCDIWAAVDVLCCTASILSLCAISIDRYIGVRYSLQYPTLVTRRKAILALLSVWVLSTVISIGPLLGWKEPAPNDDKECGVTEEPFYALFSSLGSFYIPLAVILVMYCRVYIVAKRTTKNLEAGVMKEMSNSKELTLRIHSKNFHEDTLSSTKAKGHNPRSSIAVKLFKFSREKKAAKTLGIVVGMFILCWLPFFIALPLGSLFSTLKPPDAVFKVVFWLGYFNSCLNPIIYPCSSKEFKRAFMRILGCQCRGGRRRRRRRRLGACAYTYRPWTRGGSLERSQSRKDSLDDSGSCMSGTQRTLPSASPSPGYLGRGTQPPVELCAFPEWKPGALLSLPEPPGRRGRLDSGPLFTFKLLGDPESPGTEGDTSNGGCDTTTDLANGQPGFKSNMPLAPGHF

[8] = molecular target: alpha2-adrenoreceptors (3H-yohimbine binding sites); test: displacement of 3H-yohimbine from rat brain membranes
Description: (§3) FIG. 1 - Affinity of compound No. 47 at adrenergic binding sites on brain membranes. Membranes from rat brain cortex were prepared and the displacement of either ^3 H-prazosin 0---0, ^3 H-yohimbine Δ---Δ or ^3 H-DHA --- by compound No. 47 was measured. IC50 values and apparent Ki values were determined as in Table 1. The data in the figure are from a representative experiment which was repeated. […] The results are the averages of two separate experiments.
as §1

[9] = molecular target: T2, beta-adrenoceptors (3H-DHA binding sites) (Rattus norvegicus, UniProt P18090); test: displacement of 3H-DHA from rat brain membranes
T2 construct: Membranes from rat brain cortex were prepared; from tissue; host or cells: rat brain cortex membranes
T2 sequence (P18090 whole entry): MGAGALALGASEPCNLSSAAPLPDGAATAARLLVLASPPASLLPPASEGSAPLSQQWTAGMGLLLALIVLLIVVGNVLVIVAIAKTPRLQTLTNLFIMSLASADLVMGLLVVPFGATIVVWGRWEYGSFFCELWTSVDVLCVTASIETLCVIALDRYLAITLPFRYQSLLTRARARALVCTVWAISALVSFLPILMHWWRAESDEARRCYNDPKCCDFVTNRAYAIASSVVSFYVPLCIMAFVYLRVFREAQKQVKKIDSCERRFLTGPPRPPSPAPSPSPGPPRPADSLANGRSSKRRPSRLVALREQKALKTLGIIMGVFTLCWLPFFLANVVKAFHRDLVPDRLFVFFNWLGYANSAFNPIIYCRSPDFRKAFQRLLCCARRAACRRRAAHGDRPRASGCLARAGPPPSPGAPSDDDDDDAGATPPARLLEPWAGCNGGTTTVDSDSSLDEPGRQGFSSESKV
Description: as §3, §1

[10] = system: alpha2-adrenoceptors (3H-yohimbine binding sites); test: irreversibility experiment: preincubation and washing of brain membranes, then 3H-yohimbine binding; design: species or system rat; details: preincubated and washed
Description: (§4) FIG. 5 - In vitro blockage of adrenergic binding sites in rat brain membranes by compound No. b 47 Membranes were preincubated without 0---0, or with 0---0 1×10^-7 M of compound No. 47 and processed as described in the Methods. Membranes were assayed for ^3 -prazosin binding and either ^3 -DHA or ^3 -yohimbine binding. The data are the averages of two separate experiments.
(§5) Aliquots of a suspension of membranes (5 ml), prepared as described above, were incubated with either the addition of only buffer (control) or a solution of the tested compound at various concentrations ranging from 1×10^-10 to 1×10^-5 for about 60 minutes at about 30° C. The suspensions were then diluted to approximately 40 mL with buffer, and incubated a further 10 minutes on ice. The membranes were then washed by a series of four centrifugations and resuspensions before they were finally resuspended in approximately 50 mL buffer for assay of saturation of ^3 -prazosin binding.

[11] = system: beta-adrenoceptors (3H-DHA binding sites); test: irreversibility experiment: preincubation and washing of brain membranes, then 3H-DHA binding; design: species or system rat; details: preincubated and washed
Description: as §4, §5

[12] = system: α1-adrenoceptor (3H-prazosin binding sites); test: intact animal study: intraperitoneal injection, membranes prepared 16 hours later and assayed for saturation of 3H-prazosin binding; assay type: in vivo, rat
Description: Sixteen hours later, the animals were sacrificed, membranes were prepared from various tissues, and assayed for saturation of ^3 -prazosin binding.
To test its efficacy in vivo. compound No. 47 was injected intraperitoneally at a dose of 10 mg/kg into rats. In membranes prepared from brains and hearts of animals 16 hours after injection of compound 47, a 32-44% decrease in Bmax was noted, compared to animals injected with vehicle only. […]

[13] = system: norepinephrine-induced contraction of aorta rings; test: contraction of rabbit aorta rings caused by norepinephrine; details: 10^-6 M, thirty minutes exposure
Description: Rings from aortas of rabbits were prepared using standard procedures, the rings were characterized, and the effects of compound 47 on contraction caused by norepinephrine were characterized.

[14] = system: catecholamine-activated efflux of calcium ions, rat parotid cells; test: calcium efflux activated by catecholamines in dispersed parotid cells; assay type: cell-based
[15] = system: cholinergic (muscarinic) activated efflux of calcium ions, rat parotid cells; test: calcium efflux activated by cholinergic (muscarinic) system in dispersed parotid cells; assay type: cell-based

- -logIC50 [1]: 9.79
Compound: COc1cc2nc(N3CCN(C(=O)c4ccco4)CC3)nc(N)c2cc1OC [Compound 1, 2-(4-(2-furoyl)-piperazine-1-yl)-4-amino-6,7-dimethoxy-quinazoline, reference compound]
- irreversible blockade / effect on 3H-prazosin binding sites (in words) ([2]; listed as Prazosin): prevented the decrease in binding sites caused by compound 47 alone; also recorded: had no effect on ^3 -prazosin binding
- irreversible blockade / effect on 3H-prazosin binding sites (in words) ([2]; listed as prazosin): Washing the prazosin from the membranes restored the number of alpha1 -adrenoceptors
- effect on blood pressure response to phenylephrine [3]: a higher concentration of pressor compounds was required to obtain increases in blood pressure
- effect on blood pressure response to BHT 933 [4]: a higher concentration of pressor compounds was required to obtain increases in blood pressure
- lowering of blood pressure [5]: lower blood pressure in hypertensive patients and in normotensive and hypertensive animals
- receptor specificity (in words) [6]: preferential affinity for postysynaptic alpha1 -adrenoreceptors

- -logIC50 [1]: 7.99
- Ki ([1]; FIG. 1, rat brain cortex membranes, read-out: Apparent Ki at 3H-prazosin binding sites): 3.44 nM
- decrease in binding sites, spleen membranes [7]: 18%
- preincubation time to maximum blockade ([2]; FIG. 6, 1×10^-8 M, preincubation 15 min to 3 hr): about 45 minutes
- blockage of 3H-prazosin binding ([2]; brain membranes, 1 micromole of compound 47 in preincubation): approximately 50%
- maximum blockade of 3H-prazosin binding sites ([2]; brain membranes, altered protocols): no more than 50%
- reduction of 3H-prazosin binding ([2]; brain membranes, preincubated with 10 nM, washed): 50%
- maximum blockade after double preincubation ([2]; brain membranes, two preincubations with 10 nM, FIG. 7): ≤ 50%
- blockade of binding sites, heart membranes ([2]; heart membranes, preincubated, FIG. 3): 40-50%
- blockade of binding sites, kidney membranes ([2]; kidney membranes, preincubated, FIG. 3): 40-50%
- Ki ([8]; FIG. 1, rat brain cortex membranes, read-out: Apparent Ki at 3H-yohimbine binding sites): 884 nM
- affinity at 3H-yohimbine binding sites relative to 3H-prazosin binding sites ([8]; brain membranes): over a hundred times lower
- displacement of 3H-yohimbine (in words) ([8]; brain membranes): much weaker competitor
- Ki ([9]; FIG. 1, rat brain cortex membranes, read-out: Apparent Ki at 3H-DHA binding sites): 5.91 µM
- displacement of 3H-DHA (in words) ([9]; brain membranes): much weaker competitor
- effect of preincubation on 3H-yohimbine binding (alpha2) ([10]; listed as alkylated prazosin): did not introduce permanent change
- effect of preincubation on 3H-DHA binding (beta) [11]: unaffected
- effect of preincubation on 3H-DHA binding (beta) ([11]; listed as alkylated prazosin): did not introduce permanent change
- Kd ([12]; 10 mg/kg i.p., brain, control 0.317 ± 0.071, read-out: Kd, experimental, brain): 0.292 ± 0.045 nM
- Kd ([12]; 10 mg/kg i.p., heart, control 0.150 ± 0.019, read-out: Kd, experimental, heart): 0.255 ± 0.072 nM
Compound: COc1cc2nc(N3CCN(C(=O)C4=CC5C=CC4CC5)CC3)nc(N)c2cc1OC (stereo not drawn) [Compound 47, 4-amino-2(4-bicyclo[2.2.2]octa-2,5-diene-2-carboxypiperazin-1-yl)-6,7-dimethoxyquinazoline]
- affinity to alpha1-adrenoceptors (in words) ([1]; discussion of Table 1): excellent affinity; also recorded: apparent nanomolar potency
- Kd (KD) of remaining 3H-prazosin binding sites (in words) ([2]; after preincubation and washing): without a change in the affinity (KD) of the remaining sites; also recorded: Higher concentrations in the preincubation mixture increased the Kd of the remaining sites; also recorded: only decreased the concentration of ligand by 10- and 100-fold, respectively, at which the large Kd effects were noted; also recorded: the Kd of the remaining receptors increased when lower concentrations of added ligand were used in the diluted preincubation mixtures
- irreversible blockade / effect on 3H-prazosin binding sites (in words) [2]: irreversible; also recorded: decreased the number of alpha1 -adrenoceptors permanently
- irreversible blockade / effect on 3H-prazosin binding sites (in words) ([2]; listed as alkylated prazosin): Only approximately one half of the alpha1 -adrenoceptors could be eliminated in a clean manner
- blockade of 3H-prazosin binding sites under altered protocols (in words) ([2]; preincubation time, ligand/receptor ratio, buffer, (-)epinephrine, double preincubation): remained at this level even after three hours of preincubation; also recorded: No difference in blockade; also recorded: Increasing the preincubation time up to three hours did not increase the amount of blockade; also recorded: did not change the outcome of the results; also recorded: did not affect the amount of blockade; also recorded: did not lead to further blockade
- effect of preincubation on 3H-yohimbine binding (alpha2) [10]: did not irreversibly block ^3 -yohimbine binding sites; also recorded: unaffected
- % Reduction in Bmax, brain ([12]; 10 mg/kg i.p., brain): 36%
- % Reduction in Bmax, heart ([12]; 10 mg/kg i.p., heart): 43%
- % Reduction in Bmax, kidney ([12]; 10 mg/kg i.p., kidney): 21%
- decrease in Bmax, brains and hearts ([12]; 10 mg/kg i.p., vs vehicle): 32-44%
- Kd of remaining receptors after i.p. injection (in words) ([12]; i.p.): a significant increase in the Kd of the remaining receptors was seen
- effect on blood pressure response to phenylephrine [3]: counteracted only to phenylephrine
- persistence of effect on norepinephrine contraction of aorta rings [13]: could not be cancelled by 21 hours of washing at 4 °C
- inhibition of catecholamine-activated calcium efflux [14]: potently inhibited the efflux of calcium ions
- effect on muscarinic-activated calcium efflux [15]: did not interfere in the efflux of calcium ions

From patent US5110927A (The United States of America as represented by the …, priority 1987, dated 1992)
